US6005099A, “Glucosamine disaccharides, method for their preparation, pharmaceutical composition comprising same, and their use” (priority 1993, dated 1999)
Converted amounts (≈) assume the structure as drawn. “Also recorded” adds a separate entry of the source.

Tests used:
[1] = system: macrophages of C57BL/6 mice; test: Production of TNF-α in supernatants of macrophages, ELISA; type: cell-based
Description: Bone marrow was collected from hip, femur and tibia of six week old male C57BL/6 mice. After homogenization of the marrow suspension in Dulbecco modified medium and centrifugation, the pellet was resuspended in Dulbecco modified medium and the cells were cultivated at a concentration of 4×10^5 cells per ml in the same medium supplemented with 30% supernatant of L-929 fibroblasts (a common source for colony stimulating factor 1 [CSF-1]) and 20% horse serum.
(§1) After 7 days the mature macrophages were collected and resuspended in Dulbecco modified medium comprising 5% foetal calf serum to a concentration of 7×10^6 cells per ml. This cell suspension was mixed 1:1, (v/v) with samples diluted in the same medium and used in the biological tests performed in microplates with 70,000 cells/well (incubation at 37° C. for 22 hours, 100% humidity and 8% CO2).
The concentration of TNF-α in supernatants of macrophages was determined by an ELISA test (Kit GENZYME, Factor-test mTNF-α).

[2] = system: macrophages of C57BL/6 mice; test: Production of interleukin-6 (IL-6) in supernatants of macrophages, ELISA; type: cell-based
Method: (§2) Bone marrow was collected from hip, femur and tibia of six week old male C57BL/6 mice.
as §1
IL-6 concentration in supernatants of macrophages was determined by an ELISA test (Kit ENDOGEN, EM-IL-6).

[3] = system: NMRI mice; test: Acute toxicity in NMRI mice; type: in vivo; conditions: caudal vein, up to 100 mg/kg
Method: Disaccharide A was injected into the caudal vein of male and female NMRI mice (age 6-7 weeks).

[4] = system: macrophages of C57BL/6 mice; test: Prostaglandin E2 (PGE2) production in supernatants of macrophages, RIA; type: cell-based
Method: as §2, §1

[5] = system: macrophages of C57BL/6 mice; test: Nitric oxide (NO) production in supernatants of macrophages; type: cell-based
Method: as §2, §1
Nitric oxide (NO) is produced by macrophages in response to bacterial infection and in particular LPS. NO seems to have cytostatic and cytotoxic properties. NO is extremely reactive and rapidly converted by oxidation into nitrite and nitrate.
The nitrite formation was determined using the Griess test (addition of 1:1, (v/v) N-(1-naphthyl)ethylene diamine hydrochloride [1 g/l in water] and p-aminobenzenesulphonamide [10 g/l in 5% H3 PO4 ]). The nitrite concentration in supernatants of activated macrophages was calculated in comparison to NaNO2 standards.

[6] = system: peritoneal carcinomatosis (Pro b cells); test: In vivo anti-tumor activity against peritoneal carcinomatosis in BDIX rats; conditions: for Number of rats with carcinomatoses of class 0 / Number of rats with carcinomatoses of class 1 / Number of rats with carcinomatoses of class 2 / Number of rats with carcinomatoses of class 3 / Number of rats with carcinomatoses of class 4: 10 rats, 6 weeks; for Number of rats with carcinomatoses of class 0: class 0: no tumor nodules visible; for Number of rats with carcinomatoses of class 1: class 1: a few nodules less than 0.2 cm; for Number of rats with carcinomatoses of class 2: class 2: nodules too many to be counted, up to 0.5 cm; for Number of rats with carcinomatoses of class 3: class 3: tumors up to 1 cm; for Number of rats with carcinomatoses of class 4: class 4: cavity entirely invaded by tumors
Method: The in vivo biological activity of disaccharide A was investigated for anti-tumor activity against peritoneal carcinomatosis induced in BDIX rats. Pro b cells obtained according to the method of Martin (Martin, F. et al, International Journal of Cancer, Volume 32, pages 623-627 [1983]) were injected intraperitoneally in rat (10^6 cells per rat). After 10 days numerous solid nodules appear in the mesenterium in the milky spots and progressively invade the peritoneal cavity (see Lagadec, P. et al, Invasion and Metastasis, Volume 7, pages 83-95 [1987]). Hemorrhagic ascitis appeared after 4-5 weeks and all rats died within 8-12 weeks.
Immunotherapy started 14 days after injection of the tumoral Pro b cells. The treatment consisted of intraperitoneal injections of disaccharide A; doses 0.1, 0.3 and 0.8 mg/kg bodyweight. Disaccharide A was dissolved in an aqueous solution of 0.9% NaCl and 0.1% triethylamine. The rats received five injections once every 3.5 days. A control group was injected with the aqueous solution. Both groups comprised 10 rats.
6 Weeks after the injection of the tumoral cells autopsy was carried out. The extent of peritoneal carcinomatosis was evaluated blindly and the rats were classified in the order of increasing carcinomatosis.
The classification of the nodule size is as follows:
class 0: no tumor nodules visible;
class 1: a few nodules of size less than 0.2 cm;
class 2: nodules too many to be counted size up to 0.5 cm;
class 3: tumors in size up to 1 cm;
class 4: tumoral cavity entirely invaded by tumors, size a few cm.
The statistical significance of the anti-tumoral activity was calculated by the Kruskal-Wallis test (1) or (2) using variance analysis.

[7] = system: Limulus amoebocyte lysate (LAL); test: Endotoxicity, LAL gelification test; type: biochemical, Limulus polyphemus; conditions: ng LPS per ng product, n = 2-12
Method: The endotoxicity and the biological activity of disaccharide A (example 1) and of disaccharide B (example 2) were determined and compared to that of lipopolysaccharide originating from Escherichia coli O111:B4 (Sigma, Product No. L3024), lipid A (Sigma, Product No. L5399; used as a starting material in example 4), and 3-O-deacylated lipid A originating from lipid A of Escherichia coli F583 (prepared as in the comparative example), but without purification by HPLC.
The endotoxicity was determined in the Limulus amoebocyte lysate (LAL) test. This test is based on the observation that endotoxins induce coagulation of the hemolymph of Limulus polyphemus.
In the gelification test serial dilutions of the compound to be tested were mixed with LAL 1:1, (v/v) (Haemachem Inc., sensitivity LAL 0.06 endotoxin units/ml), and the mixture was incubated for one hour at 37° C. Then gel formation was monitored by measuring the optical density at 405 nm. The last dilution which formed a gel was determined by inverting the reaction microplate. The endotoxin activity in the samples was determined by comparison with dilutions of a lipopolysaccharide standard (1 endotoxin unit=0.1 ng LPS).
The results are expressed in table 3 as: ng LPS per ng product.

[8] = for lipid A and 3-O-deacylated lipid A activity relatively constant within the tested range, no maximum

## CCCCCCCCCCCC(=O)O[C@H](CCCCCCCCCCC)CC(=O)N[C@H]1[C@H](OC[C@H]2O[C@H](OP(=O)(O)O)[C@H](NC(=O)C[C@H](O)CCCCCCCCCCC)[C@@H](O)[C@@H]2O)O[C@H](CO)[C@@H](OP(=O)(O)O)[C@@H]1O [disaccharide A, 2-Deoxy-6-O-[2-deoxy-2-[(R)-3-dodecanoyloxytetradecanoylamino]-4-O-phosphono-β-D-glucopyranosyl]-2-[(R)-3-hydroxytetradecanoylamino]-α-D-glucopyranosyl dihydrogenphosphate]
[1]; 500 μg/ml
  TNF-α at concentration 500 μg/ml: 530 ± 139 pg/mL
[1]; Mus musculus, Macrophage, 22 h, detection limit in the order of 100 pg/ml, read-out: TNF-α: Minimum activity detected, concentration
  minimal effective concentration: 0.16 µg/mL
[1]; at the concentration of minimum activity, LPS 0.006, lipid A 0.016, 3-O-deacylated lipid A 0.016, disaccharide A 0.16 μg/ml
  TNF α at minimum activity detected: 159 ± 43 pg/mL
[1]; highest concentration tested 500 μg/ml
  TNF-α at highest concentration tested: 530 ± 139 pg/mL
[1]; macrophages of C57BL/6 mice
  TNF-α production, in words: equally or more strongly than lipid A or 3-O-deacylated lipid A
[2]; 50% activity
  IL-6 at 50% activity: 2850 pg/mL
[2]; Mus musculus, Macrophage, 22 h, read-out: IL-6: Minimum activity, concentration
  minimal effective concentration: 0.016 µg/mL
[2]; Mus musculus, Macrophage, read-out: IL-6: 50% activity, concentration
  EC50: 1 µg/mL (≈ 0.881 µM)
[2]; at the concentration of minimum activity
  IL-6 at minimum activity: 850 ± 350 pg/mL
[2]; [8]
  IL-6: Maximum activity, concentration: 50 µg/mL
  IL-6 at maximum activity: 5700 ± 2650 pg/mL
[2]; macrophages of C57BL/6 mice
  IL-6 production, in words: significantly lower than for LPS; also recorded: more strongly than lipid A and 3-O-deacylated lipid A
[3]
  Acute toxicity, deaths: did not induce any death
[4]; 500 μg/ml, detection limit of the order of 80 pg/ml
  PGE2 at highest concentration inducing an activity: 540 ± 65 pg/mL
[4]; LPS 6.25, 3-O-deacylated lipid A 500, disaccharide A 16 μg/ml, detection limit of the order of 80 pg/ml
  PGE2 at lowest concentration inducing an activity: 80 ± 41 pg/mL
[4]; Mus musculus, Macrophage, 22 h, detection limit of the order of 80 pg/ml, read-out: PGE2: Lowest concentration inducing an activity
  minimal effective concentration: 16 µg/mL
[4]; highest concentration used
  PGE2: Highest concentration inducing an activity: 500 µg/mL
[4]; macrophages of C57BL/6 mice
  PGE2 production, in words: significantly lower than for LPS; also recorded: more active than lipid A and 3-O-deacylated lipid A
[5]; Mus musculus, Macrophage, product concentration corresponding to 50% activity, 22 hours, 37° C.
  EC50: 0.16 µg/mL (≈ 0.141 µM)
[5]; Mus musculus, Macrophage, product concentration corresponding to induced NO activity, 22 hours, 37° C., read-out: NO production: Minimum activity (product concentration)
  minimal effective concentration: 0.016 µg/mL
[5]; extrapolated from the series dilution curve
  NO activity at 50% in nmol of NO2- /ml: 5 nmol of NO2- /ml
[5]; macrophages of C57BL/6 mice
  NO production, in words: induce NO production of the same order; also recorded: as strongly as lipid A and 3-O-deacylated lipid A
[5]; product concentration corresponding to induced NO activity, 22 hours, 37° C.
  NO production: Maximum activity (product concentration): 50 µg/mL
[6]; 0.1 mg/kg i.p.
  Ascitis volume, Average: 7 ± 7 ml/rat
  Ascitis volume, Limits: 0-18 ml/rat
  Number of rats with carcinomatoses of class 0: 0
  Number of rats with carcinomatoses of class 1: 2
  Number of rats with carcinomatoses of class 2: 0
  Number of rats with carcinomatoses of class 3: 4
  Number of rats with carcinomatoses of class 4: 4
[6]; 0.3 mg/kg i.p.
  Ascitis volume, Average: 2 ± 6 ml/rat
  Ascitis volume, Limits: 0-20 ml/rat
  Number of rats with carcinomatoses of class 0: 2
  Number of rats with carcinomatoses of class 1: 3
  Number of rats with carcinomatoses of class 2: 2
  Number of rats with carcinomatoses of class 3: 2
  Number of rats with carcinomatoses of class 4: 1
[6]; 0.8 mg/kg i.p.
  Ascitis volume, Average: 0 ± 1 ml/rat
  Ascitis volume, Limits: 0-2 ml/rat
  Number of rats with carcinomatoses of class 0: 1
  Number of rats with carcinomatoses of class 1: 6
  Number of rats with carcinomatoses of class 2: 1
  Number of rats with carcinomatoses of class 3: 1
  Number of rats with carcinomatoses of class 4: 1
[6]; peritoneal carcinomatosis
  Anti-tumoral effect, in words: dose-dependent anti-tumoral effect
[7]
  Endotoxic activity in LAL, gelification: 0.003 ± 0.002 ng/ng
